Data set [1] can be described thus: Toxicokinetics of LUM001 free form, 13-week oral capsule toxicity study in dogs. It is filed as in vivo, Beagle dog. The settings on record: 13-wk dog capsule, 20 mg/kg. The procedure: Six- to seven-month old Beagle dogs of body weights of 4.9-9.5 kg (4/sex/group) orally via capsules at 0, 5, 20 or 100 mg/kg for 13 consecutive weeks. Plasma levels of LUM001 (free form) were evaluated on Days 1 and 91. LUM001 was administered by once daily oral gelatin capsules. […] therefore, 105% of a stated dose is given to provide the appropriate amount of compound for dosing. On study Day 1 and Day 91, approximately 2 mL of venous blood was collected in heparinized tubes from the cephalic vein of each animal at 1, 2, 3, 5, 8, and 24 hours post-dose. Blood collection tubes were mixed and placed on ice during the collection period after which they were centrifuged and the plasma was harvested into cryotubes within approximately 60 minutes of blood collection. Plasma samples were stored at approximately −70° C. or lower until analyzed.
The concentration of LUM001 free form in plasma were determined using an LC/MS/MS method. The assay sensitivity was 5.00 ng/mL for a 100 mL sample.

The test system of a further data set is serum cholesterol. As to the kind of experiment: Serum total, HDL and non-HDL cholesterol, hamsters dosed 28 days. The settings on record: hamster. It is filed as in vivo, golden Syrian hamster. From the text: Male golden Syrian hamsters (126-147 gm) were obtained from Charles Rivers Laboratories and were single housed in a constant temperature environment with alternating 12-hour light and dark cycles. Hamsters were fed Teklad 7001 rodent meal chow at libitum for two weeks before the experimental studies began and switched to Teklad 7001 rodent meal chow supplemented with 0.24% cholesterol on day one of the 28-day experiment. Water was continuously available to the animals. Hamsters were assigned to groups in a manner that normalized each group by pretreatment body weights. SD-5613 was dissolved in an aqueous solution of 0.2% (w/v) Tween 80 and administered Q.D. by intragastric gavage between 9 a.m. and 10 a.m. each morning using a syringe fitted with a flexible feeding tube. Blood samples were collected after 14- and 28-day treatment periods by orbital sinus and cardiac puncture, respectively. Hamsters were anesthetized but not fasted prior to blood collections. Fecal samples were collected during a 48-hour period at the end of days 14 and 28 (i.e. days 13-14 and 27-28). Hamsters were sacrificed using carbon dioxide asphyxiation to obtain the following tissue samples: liver, kidneys, colon and cecum.
Blood was collected at 14 and 28 days from non-fasted hamsters and put into serum separator tubes. The blood cells were separated from the serum by centrifugation at 2000×g for 20 minutes and the serum decanted. Total cholesterol was measured using a Cobas Mira Classic clinical chemistry analyzer (Roche Diagnostic Systems, Indianapolis, Ind.). This analyzer used the cholesterol oxidase reaction to produce hydrogen peroxide which was measured colorimetrically. The cholesterol reagent (Roche Diagnostic Systems) was reconstituted according to package insert. The reagent was calibrated using Roche Calibrator Serum. Commercial bi-level quality control material was analyzed to verify calibration and reagent performance (QC1, QC2-Bio-Rad Laboratories, Irvine, Calif.). The cholesterol content of each sample was measured at 500 nm and 37° C. in a calibrated analyzer by mixing 3 μl of sample with 150 μl cholesterol reagent and 40 μl water.
The Unimate HDL Direct Cholesterol assay (DHDL, Roche Diagnostics) was based on the […] of synthetic polymers and polyanions to the surface of lipoproteins. The combined action of polymers, polyanions and detergent solubilizes cholesterol from HDL, but transforms LDL, VLDL, and chylomicrons into detergent-resistant forms. Solubilized cholesterol was oxidized by the sequential enzymatic action of cholesterol esterase and cholesterol oxidase. The H2O2 produced in this reaction was reacted with chromogens to form a colored dye. The increase in absorbance at 550 nm was directly proportional to the HDL cholesterol concentration of the sample. The test was performed using a Cobas Mira Classic clinical chemistry analyzer (Roche Diagnostic Systems). The DHDL reagent (Roche Diagnostic Systems) was reconstituted according to the package insert. The reagent was calibrated using Roche HDL Direct Calibrator. Commercial bi-level quality control material was analyzed to verify calibration and reagent performance (Liquichek Lipids Control, Level 1 & 2, Bio-Rad Laboratories, Irvine, Calif.). A 2.4 μl aliquot of serum was analyzed in the presence of 240 μl of Reagent 1, 80 μl of Reagent 2 and 5 μl of water at 37° C. and 550 nm wavelength. Triglycerides were hydrolyzed by lipoprotein lipase to glycerol and fatty acids. Glycerol was then phosphorylated to glycerol-3-phosphate by adenosine 5-triphosphate (ATP) in a reaction catalyzed by glycerol kinase (GK). The oxidation of glycerol-3-phosphate was catalyzed by glycerolphosphate oxidase (GPO) to form dihydroxyacetone phosphate and hydrogen peroxide. The hydrogen peroxide reacted with 4-cholorophenol and 4-aminophenazone in the presence of peroxidase to form a quinoneimine complex, which was read at 490-550 nm. […]

The subject of a further data set is serum bile acids. In words: Fasting and post-prandial peak serum bile acids in children and adolescents after eight days of LUM001. It counts as in vivo, human. The conditions noted are these: LUM001 treated patients. The procedure:
The efficacy of LUM001 was determined by measuring total serum bile acids after eight days of dosing in children and adolescents under the age of eighteen. Thirty minutes before the next drug administration, at approximately 8 am in the morning, serum bile acid levels were measured. The child had refrained from food for 12 hours prior to this sample thus providing a fasted level of serum bile acid. After breakfast, serum bile acids were measured for up to the next 4 hours (8 am to noon) and the peak serum bile acid concentration noted.

In data set [1] (Day 1, Comb), `CCCCC1(CCCC)CS(=O)(=O)c2ccc(N(C)C)cc2[C@@H](c2ccc(OCc3ccc(C[N+]45CCN(CC4)CC5)cc3)cc2)[C@H]1O` [LUM001] had a Cmax of 25.1 ng/mL. For the same molecule, the highest concentration (Cmax) in data set [1] (Day 91, F) worked out at 25.0 ng/mL. Further, in the data set with serum cholesterol (5 mg/kg/day), the HDL-cholesterol was determined as 127 ± 10 mg/dL; the “HDL-cholesterol, % change from vehicle group” value was “(−22) %”; the Non-HDL-cholesterol stood at 99 ± 9 mg/dL; the “Non-HDL-cholesterol, % change from vehicle group” value (from here on “Non-HDL-cholesterol, % change”) is “(−37) %”. Also, in the data set on serum cholesterol (5 mg/kg/day), the “Serum Total Cholesterol” value was 225 ± 16 mg/dL and the “Serum Total Cholesterol, % change from vehicle group” value (“Serum Total Cholesterol, % change” below) is reported as “(−29) %”. In the data set with serum cholesterol (15 mg/kg/day), the HDL-cholesterol was 115 ± 7 mg/dL; the “HDL-cholesterol, % change from vehicle group” value was “(−29) %”; the Non-HDL-cholesterol was found to be 86 ± 8 mg/dL; the “Non-HDL-cholesterol, % change” value is “(−45) %”. In addition, in the data set on serum cholesterol (15 mg/kg/day), the “Serum Total Cholesterol” value was determined as 201 ± 14 mg/dL and the “Serum Total Cholesterol, % change” value is listed as “(−37) %”. For the same molecule, in the data set with serum cholesterol (50 mg/kg/day), the HDL-cholesterol is given as 102 ± 4 mg/dL; the “HDL-cholesterol, % change from vehicle group” value is recorded as “(−37) %”; the Non-HDL-cholesterol stood at 76 ± 4 mg/dL; the “Non-HDL-cholesterol, % change” value is listed as “(−52) %”. Also, in the data set with serum cholesterol (50 mg/kg/day), the “Serum Total Cholesterol” value is 178 ± 6 mg/dL and the “Serum Total Cholesterol, % change” value is reported as “(−44) %”. In the data set on serum bile acids, the “decrease in fasting serum bile acid level vs placebo” value stood at 24% and the “decrease in post-prandial peak serum bile acid level vs placebo” value was determined as 23%.

By Cmax is commonly meant the highest concentration seen after dosing.

The record behind these values is patent publication US20140275090A1, “BILE ACID RECYCLING INHIBITORS FOR TREATMENT OF PRIMARY SCLEROSING CHOLANGITIS AND INFLAMMATORY BOWEL DISEASE” (Lumena Pharmaceuticals, Inc., priority 2013, published 2014).
